Consider 1 compound from patent US11453657B2 (GlaxoSmithKline Intellectual Property Development Limited, priority 2018, dated 2022).

Bounds are passed on as bounds.

This experiment deals with P. falciparum infected erythrocytes. Briefly: P. falciparum growth inhibition assay ([3H]hypoxanthine incorporation). Format: cell-based, Plasmodium falciparum. The following applies: Plasmodium falciparum, Erythrocyte, [3H]hypoxanthine incorporation, 0.5% parasitemia, 2% hematocrit, 48 h; read-out: PfIC50 Media. Here is the method:
P. falciparum Growth Inhibition Assay.
The sensitivity of P. falciparum infected erythrocytes to the compound was determined in duplicate using the [3H]hypoxanthine incorporation method with an inoculum of 0.5% parasitemia (ring stage) and 2% hematocrit. The parasites were grown in RPMI 1640, 25 mM HEPES and supplemented with 5% Albumax. Plates are incubated at 37° C., 5% CO2, 5% O2, 90% N2. After 24 h of incubation, [3H]hypoxanthine is added and plates are incubated for another 24 h. After that period, plates are harvested on a glass fiber filter using a TOMTEC Cell harvester 96. Filters are dried and melt on scintillator sheets and the bound radioactivity is quantified by use of a Wallac Microbeta Trilux (Model 1450 LS—Perkin Elmer). IC50s are determined using Grafit 7 program (Grafit program; Erithacus Software, Horley, Surrey, United Kingdom).
Each example compound was tested generally in accordance with the above-mentioned assay and the PfIC50 value for each compound is reported in the Table below and according to the following: […]

Turning to `Cn1nnc(C[C@@H](O)COc2ccc(C(=O)N3CC[C@H](c4ccc(F)cc4)C3)cc2)n1` [Example 23, ((R)-3-(4-fluorophenyl)pyrrolidin-1-yl)(4-((R)-2-hydroxy-3-(2-methyl-2H-tetrazol-5-yl)propoxy)phenyl)methanone], the IC50 is under 100 nM.
